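Five concentrations, 48 hours, 96-well plates. GI50 marks 50% less growth.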 Calls of active or inactive are those of the source. Rule as the data show it: active = GI50 up to about 1.1 µM and inactive = higher.
How the values were obtained:
Assay in all cases: NCI anticancer screen, dose series, 48 h
SN12C = system: SN12C
Hs-578T = system: Hs-578T
NCI-H460 = system: NCI-H460
UO-31 = system: UO-31
KM12 = system: KM12
EKVX = system: EKVX
SF-295 = system: SF-295
PC-3 = system: PC-3
SR = system: SR
UACC-62 = system: UACC-62
A498 = system: A498
MDA-MB-435 = system: MDA-MB-435
U-251 = system: U-251
LOX IMVI = system: LOX IMVI
HCT-116 = system: HCT-116
SK-MEL-28 = system: SK-MEL-28
NCI-H226 = system: NCI-H226
SF-268 = system: SF-268
HOP-62 = system: HOP-62
BT-549 = system: BT-549

Measured: GI50

CNC(=O)c1nnn(C2CCCCC2)c1S
inactive: SN12C > 100 µM | Hs-578T > 100 µM | NCI-H460 > 100 µM | UO-31 > 100 µM | KM12 > 100 µM | EKVX > 100 µM | SF-295 > 100 µM | PC-3 > 100 µM | SR > 100 µM | UACC-62 > 100 µM | A498 > 100 µM | MDA-MB-435 > 100 µM | U-251 > 100 µM | LOX IMVI > 100 µM | HCT-116 > 100 µM | SK-MEL-28 > 100 µM | NCI-H226 > 100 µM | SF-268 > 100 µM | HOP-62 > 100 µM

CCOP(=O)(/C=C\n1ccc(=O)[nH]c1=O)OCC
inactive: SN12C > 100 µM | BT-549 > 100 µM | NCI-H460 > 10 µM | KM12 > 100 µM | EKVX > 100 µM | SF-295 > 100 µM | PC-3 > 100 µM | UACC-62 > 100 µM | A498 > 100 µM | MDA-MB-435 > 100 µM | U-251 > 100 µM | LOX IMVI > 100 µM | HCT-116 > 100 µM | SK-MEL-28 > 100 µM | NCI-H226 > 100 µM | SF-268 > 100 µM | HOP-62 > 100 µM

CC[C@]1(Cc2ccc(OC)c(OC)c2)CN(S(=O)(=O)c2ccc(C)cc2)C[C@@H]1OC(C)=O
inactive: Hs-578T > 100 µM | NCI-H460 > 100 µM | UO-31 > 100 µM | KM12 > 100 µM | EKVX > 100 µM | SF-295 38.5 µM | PC-3 75.7 µM | SR > 100 µM | UACC-62 > 100 µM | A498 > 100 µM | MDA-MB-435 > 100 µM | U-251 65.6 µM | LOX IMVI > 100 µM | SK-MEL-28 > 100 µM | NCI-H226 > 100 µM | SF-268 > 100 µM | HOP-62 33 µM

CN(C)CC1CCC(CN(C)C)C(=O)C1=O (configuration not stated)
inactive: SN12C 18.4 µM | BT-549 8.67 µM | NCI-H460 18.8 µM | UO-31 3.48 µM | KM12 14.2 µM | EKVX 17.3 µM | SF-295 16.6 µM | PC-3 16.7 µM | SR 2.09 µM | UACC-62 16.1 µM | A498 16.8 µM | MDA-MB-435 17.8 µM | U-251 12.7 µM | LOX IMVI 8.63 µM | HCT-116 2.4 µM | SK-MEL-28 8.87 µM | NCI-H226 4.41 µM | SF-268 6.75 µM | HOP-62 20.1 µM

CC12CCC(/C(=N/c3cc(C(F)(F)F)cc(C(F)(F)F)c3)C1=O)C2(C)C (configuration not stated)
inactive: BT-549 32.5 µM | NCI-H460 33.4 µM | UO-31 52 µM | KM12 26.4 µM | EKVX 78.7 µM | SF-295 41.9 µM | PC-3 27.5 µM | SR 18.8 µM | UACC-62 31.3 µM | A498 22.3 µM | MDA-MB-435 38.3 µM | U-251 35.4 µM | LOX IMVI 15.2 µM | HCT-116 27.7 µM | SK-MEL-28 25.8 µM | NCI-H226 86.7 µM | SF-268 33.3 µM | HOP-62 39.8 µM

CCN(CC)c1cc2c3c(c1)CCCN3CCC2
inactive: SN12C > 10 µM | Hs-578T > 10 µM | NCI-H460 > 10 µM | UO-31 > 10 µM | KM12 > 10 µM | EKVX > 10 µM | SF-295 > 10 µM | PC-3 > 10 µM | SR > 10 µM | UACC-62 > 10 µM | A498 > 10 µM | MDA-MB-435 > 10 µM | U-251 > 10 µM | LOX IMVI > 10 µM | HCT-116 > 10 µM | SK-MEL-28 > 10 µM | NCI-H226 > 10 µM | SF-268 > 10 µM | HOP-62 > 10 µM

Cc1ccc(Nc2nc(=O)[nH]c(=O)[nH]2)cc1N=[N+]=[N-]
inactive: SN12C > 100 µM | Hs-578T > 100 µM | BT-549 > 100 µM | UO-31 > 100 µM | KM12 > 100 µM | EKVX > 100 µM | SF-295 > 100 µM | SR > 100 µM | UACC-62 > 100 µM | A498 > 100 µM | MDA-MB-435 > 100 µM | LOX IMVI > 100 µM | HCT-116 > 100 µM | NCI-H226 > 100 µM | SF-268 > 100 µM | HOP-62 > 100 µM

c1ccc2cc3c(NC4=NCCO4)cccc3cc2c1
inactive: SN12C 58.5 µM | Hs-578T 41.8 µM | NCI-H460 29 µM | UO-31 53 µM | KM12 44.7 µM | EKVX 76.2 µM | SF-295 > 100 µM | PC-3 45.1 µM | SR 36 µM | UACC-62 > 100 µM | A498 67.6 µM | MDA-MB-435 37.1 µM | U-251 > 100 µM | LOX IMVI 29.8 µM | HCT-116 50 µM | SK-MEL-28 > 100 µM | NCI-H226 52.2 µM | SF-268 34.2 µM | HOP-62 > 100 µM

CCN(CC)CCNc1n[n+]([O-])c2ccccc2[n+]1[O-]
inactive: SN12C 3.91 µM | Hs-578T 28.6 µM | BT-549 16.4 µM | UO-31 19 µM | KM12 9.2 µM | EKVX 12.7 µM | SF-295 7.93 µM | PC-3 5.78 µM | UACC-62 4.8 µM | MDA-MB-435 12.5 µM | U-251 12.8 µM | LOX IMVI 9.86 µM | HCT-116 7.73 µM | SK-MEL-28 39.4 µM | NCI-H226 7.21 µM | SF-268 10.7 µM | HOP-62 5.11 µM

O=C(OCC1OC(c2nn[nH]n2)C(OC(=O)c2ccccc2)C1OC(=O)c1ccccc1)c1ccccc1 (configuration not stated)
inactive: SN12C > 100 µM | BT-549 > 100 µM | NCI-H460 71 µM | UO-31 > 100 µM | KM12 67.6 µM | EKVX 66.1 µM | SF-295 > 100 µM | PC-3 > 100 µM | UACC-62 53 µM | A498 > 100 µM | MDA-MB-435 > 100 µM | U-251 > 100 µM | LOX IMVI > 100 µM | HCT-116 > 100 µM | NCI-H226 79.8 µM | SF-268 76.7 µM | HOP-62 > 100 µM

COc1c(-c2nc3ccc(N4CCN(C)CC4)nc3[nH]2)cc(OC)c2[nH]c(CO)nc12
inactive: SN12C 53 µM | Hs-578T > 100 µM | BT-549 > 100 µM | NCI-H460 > 100 µM | UO-31 > 100 µM | KM12 93.5 µM | EKVX > 100 µM | SF-295 > 100 µM | SR > 100 µM | UACC-62 82.2 µM | A498 > 100 µM | MDA-MB-435 56.8 µM | U-251 29.6 µM | LOX IMVI 85.5 µM | HCT-116 54.7 µM | SK-MEL-28 > 100 µM | NCI-H226 36.1 µM | SF-268 92.3 µM | HOP-62 99.5 µM

From ChEMBL document CHEMBL1201862, “PubChem BioAssay data set” (2004)
